The target in the assay is T1, hTRPV3 (Homo sapiens, UniProt Q8NET8).
T1 construct: expressed in transfected cells; host or cells: HEK-293
T1 sequence (Q8NET8 1-790): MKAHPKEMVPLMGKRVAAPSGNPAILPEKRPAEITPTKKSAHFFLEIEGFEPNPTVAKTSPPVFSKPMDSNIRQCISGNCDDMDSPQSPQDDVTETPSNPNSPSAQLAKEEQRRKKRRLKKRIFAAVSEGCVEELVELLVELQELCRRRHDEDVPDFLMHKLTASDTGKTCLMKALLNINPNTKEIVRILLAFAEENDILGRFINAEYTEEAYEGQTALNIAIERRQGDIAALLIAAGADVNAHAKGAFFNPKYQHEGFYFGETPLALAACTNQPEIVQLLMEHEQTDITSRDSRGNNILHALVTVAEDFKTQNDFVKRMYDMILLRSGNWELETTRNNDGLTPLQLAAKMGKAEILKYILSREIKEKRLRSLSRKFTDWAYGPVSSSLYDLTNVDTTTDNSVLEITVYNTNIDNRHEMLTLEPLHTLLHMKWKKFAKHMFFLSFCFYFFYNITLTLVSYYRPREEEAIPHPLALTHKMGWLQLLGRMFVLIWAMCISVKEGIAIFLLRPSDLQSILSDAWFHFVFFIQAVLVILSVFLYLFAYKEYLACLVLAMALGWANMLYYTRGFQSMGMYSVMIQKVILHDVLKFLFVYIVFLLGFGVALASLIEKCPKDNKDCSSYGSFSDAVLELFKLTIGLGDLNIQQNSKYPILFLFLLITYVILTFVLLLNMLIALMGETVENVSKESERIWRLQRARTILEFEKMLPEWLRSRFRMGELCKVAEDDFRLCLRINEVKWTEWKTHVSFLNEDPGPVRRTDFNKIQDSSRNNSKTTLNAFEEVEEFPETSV
Nature of the assay: Whole cell patch clamp inhibition rate test on HEK-293 cells instantaneously expressing TRPV3. The format is cell-based. Particulars: HEK293; hTRPV3, single concentration 0.3 μM. As for the experimental part: In this study, HEK-293 cells instantaneously expressing TRPV3 were used for experimental detection.
The operation steps are as follows:
The cells were cultured in DMEM medium containing 10% fetal bovine serum at a temperature of 37° C. and a carbon dioxide concentration of 5%.
Day 1: Cells were inoculated into a 6-well plate with 5×10^5 cells per well.
Day 2: Transfection was performed using Lipofectamine 3000 transfection reagent, with a plasmid to transfection reagent ratio of 1 μg: 2 μL. The total amount of plasmid used per well was 3 μg. Specifically, two sterile centrifuge tubes were taken and 100 μL Opti-MEM was added to each tube. 6 μL Lipofectamine 3000 was added to one tube and mixed well; and 3 μg plasmid was added to another tube and mixed well, and then 6 μL P3000 was added and mixed well; Subsequently, the diluted plasmid DNA was added to diluted Lipofectamine 3000 and incubated at room temperature for 10-15 min. DNA liposome complex was dropped into the cells, shaked gently and mixed well, and then cultured in an incubator. The liquid was changed after 4 to 6 h.
Day 3: The cells were digested and seeded into 24 well plates with pre-placed cover slides, with 8×10^3 cells per well.
Day 4: Patch clamp testing was performed.
The voltage stimulation protocol for recording TRPV3 current using whole cell patch clamp is as follows: after forming a whole cell seal, a cell membrane voltage clamp was set at −80 mV. Firstly, a membrane potential was recorded at 0 mV, and then a voltage was command to start from −100 mV, to depolarize in the form of Ramp to 100 mV within 100 ms, and finally restore to 0 mV. Data collection was repeated every 5 seconds to observe the inhibitory effect of pharmaceutical on peak current. Experimental data was collected by EPC 10 amplifier (HEKA) and stored in PatchMaster (HEKA) software.
A microelectrode puller was used to pull the capillary glass tube into a recording electrode. The electrode filled with intracellular fluid was inserted into a microelectrode holder, and a microelectrode manipulator was operated under an inverted microscope to immerse the electrode in extracellular fluid and an electrode resistance (Rpip) was recorded. The electrode was brought into contact with the cell surface and a negative pressure suction was applied to form a high resistance seal (GΩ). At this point, a fast capacitance compensation was performed, and negative pressure was continued to apply in order to break the cell membrane, so that a whole cell recording mode was formed. Then, a slow capacitance compensation was performed and experimental parameters such as film capacitance (Cm) and series resistance (Rs) were recorded. No leakage compensation was provided.
When the TRPV3 current recorded by the whole cell had stabilized, administration was started. Each pharmaceutical concentration acted for 5 minutes (or until the current stabilized) before detecting the next concentration. A plurality of concentrations was tested for each test compound. A cover glass covered with cells was placed in a recording bath under an inverted microscope. A blank control extracellular solution and a working fluid for the compound to be tested sequentially flowed through the recording bath from low concentration to high concentration using gravity perfusion to act on the cells. Liquid exchange was performed using a peristaltic pump during recording. The current detected by each cell in the extracellular fluid without the compound served as its own control group. Each concentration was independently tested twice using at least two cells. All electrophysiological tests were conducted at room temperature.
(In general: Patch clamp records ionic current or voltage across a cell membrane.)
As usually defined, the inhibition is the share of the control response that was lost under treatment. Read a low inhibition as a weak effect. Compound `CC(C)c1ccccc1-c1ccc2c(c1)[C@H](O)C[C@@]21CCN(C(=O)c2ccc(F)cn2)C1` [Example 25] had an inhibition at 0.3 µM of 70 to 100%.

For `CC(C)c1ccccc1-c1ccc2c(c1)[C@H](O)C[C@]21CCN(C(=O)c2ccc(F)cn2)C1` [Example 26], the inhibition at 0.3 µM is below 25%. `CC(C)c1ccccc1-c1ccc2c(c1)[C@@H](O)C[C@]21CCN(C(=O)c2ccc(F)cn2)C1` [Example 27] came in with an inhibition at 0.3 µM below 25%. The compound `CC(C)c1ccccc1-c1ccc2c(c1)[C@@H](O)C[C@@]21CCN(C(=O)c2ccc(F)cn2)C1` [Example 28] displayed an inhibition at 0.3 µM below 25%. Turning to `O=C(c1csc(Cl)n1)N1CC[C@@]2(C[C@@H](O)c3cc(-c4ccccc4C4CC4)ccc32)C1` [Example 29, (2-chlorothiazol-4-yl)((1S,3R)-5-(2-cyclopropylphenyl)-3-hydroxy-2,3-dihydrospiro[indene-1,3′-pyrrolidine]-1′-yl)ketone], the inhibition at 0.3 µM was in the range of 70 to 100%. Compound `O=C(c1csc(Cl)n1)N1CC[C@]2(C[C@@H](O)c3cc(-c4ccccc4C4CC4)ccc32)C1` [Example 30, (2-chlorothiazol-4-yl)((1R,3R)-5-(2-cyclopropylphenyl)-3-hydroxy-2,3-dihydrospiro[indene-1,3′-pyrrolidine]-1′-yl)ketone] displayed an inhibition at 0.3 µM below 25%. The figure for `O=C(c1csc(Cl)n1)N1CC[C@@]2(C[C@H](O)c3cc(-c4ccccc4C4CC4)ccc32)C1` [Example 31, (2-chlorothiazol-4-yl)((1S,3S)-5-(2-cyclopropylphenyl)-3-hydroxy-2,3-dihydrospiro[indene-1,3′-pyrrolidine]-1′-yl)ketone] is below 25%.

`O=C(c1csc(Cl)n1)N1CC[C@]2(C[C@H](O)c3cc(-c4ccccc4C4CC4)ccc32)C1` [Example 32, (2-chlorothiazol-4-yl)((1R,3S)-5-(2-cyclopropylphenyl)-3-hydroxy-2,3-dihydrospiro[indene-1,3′-pyrrolidine]-1′-yl)ketone]: the inhibition at 0.3 µM is below 25%. In turn, `CC(C)c1ccccc1-c1ccc2c(c1)[C@H](O)C[C@@]21CCN(C(=O)c2csc(Cl)n2)C1` [Example 33, (2-chlorothiazol-4-yl)((1S,3R)-3-hydroxy-5-(2-isopropylphenyl)-2,3-dihydrospiro[indene-1,3′-pyrrolidine]-1′-yl)ketone] gave an inhibition at 0.3 µM of 70 to 100%.

`CC(C)c1ccccc1-c1ccc2c(c1)[C@H](O)C[C@]21CCN(C(=O)c2csc(Cl)n2)C1` [Example 34, (2-chlorothiazol-4-yl)((1R,3R)-3-hydroxy-5-(2-isopropylphenyl)-2,3-dihydrospiro[indene-1,3′-pyrrolidine]-1′-yl)ketone] came in with an inhibition at 0.3 µM below 25%. The figure for `CC(C)c1ccccc1-c1ccc2c(c1)[C@@H](O)C[C@@]21CCN(C(=O)c2csc(Cl)n2)C1` [Example 35, (2-chlorothiazol-4-yl)((1S,3S)-3-hydroxy-5-(2-isopropylphenyl)-2,3-dihydrospiro[indene-1,3′-pyrrolidine]-1′-yl)ketone] is below 25%; for `CC(C)c1ccccc1-c1ccc2c(c1)[C@@H](O)C[C@]21CCN(C(=O)c2csc(Cl)n2)C1` [Example 36, (2-chlorothiazol-4-yl)((1R,3S)-3-hydroxy-5-(2-isopropylphenyl)-2,3-dihydrospiro[indene-1,3′-pyrrolidine]-1′-yl)ketone] it is below 25%. Turning to `O=C(c1cccc(C2CC2)n1)N1CC[C@@]2(C[C@@H](O)c3cc(-c4ccccc4C4CC4)ccc32)C1` [Example 37, ((1S,3R)-5-(2-cyclopropylphenyl)-3-hydroxy-2,3-dihydrospiro[indene-1,3′-pyrrolidine]-1′-yl)(6-cyclopropylpyridin-2-yl) ketone], the inhibition at 0.3 µM was 70 to 100%. `O=C(c1cccc(C2CC2)n1)N1CC[C@]2(C[C@@H](O)c3cc(-c4ccccc4C4CC4)ccc32)C1` [Example 38, ((1R,3R)-5-(2-cyclopropylphenyl)-3-hydroxy-2,3-dihydrospiro[indene-1,3′-pyrrolidine]-1′-yl)(6-cyclopropylpyridin-2-yl) ketone]: the inhibition at 0.3 µM was below 25%. In turn, `O=C(c1cccc(C2CC2)n1)N1CC[C@@]2(C[C@H](O)c3cc(-c4ccccc4C4CC4)ccc32)C1` [Example 39, ((1S,3S)-5-(2-cyclopropylphenyl)-3-hydroxy-2,3-dihydrospiro[indene-1,3′-pyrrolidine]-1′-yl)(6-cyclopropylpyridin-2-yl) ketone] had an inhibition at 0.3 µM below 25%. In the case of `O=C(c1cccc(C2CC2)n1)N1CC[C@]2(C[C@H](O)c3cc(-c4ccccc4C4CC4)ccc32)C1` [Example 40, ((1R,3S)-5-(2-cyclopropylphenyl)-3-hydroxy-2,3-dihydrospiro[indene-1,3′-pyrrolidine]-1′-yl)(6-cyclopropylpyridin-2-yl) ketone], the inhibition at 0.3 µM is below 25%. In the case of `CC(C)c1ccccc1-c1ccc2c(c1)[C@H](O)C[C@@]21CCN(C(=O)c2cccc(C3CC3)n2)C1` [Example 41, (6-cyclopropylpyridin-2-yl)((1S,3R)-3-hydroxy-5-(2-isopropylphenyl)-2,3-dihydrospiro[indene-1,3′-pyrrolidine]-1′-yl)ketone], the inhibition at 0.3 µM was 70 to 100%. The compound `CC(C)c1ccccc1-c1ccc2c(c1)[C@H](O)C[C@]21CCN(C(=O)c2cccc(C3CC3)n2)C1` [Example 42, (6-cyclopropylpyridin-2-yl)((1R,3R)-3-hydroxy-5-(2-isopropylphenyl)-2,3-dihydrospiro[indene-1,3′-pyrrolidine]-1′-yl)ketone] registered an inhibition at 0.3 µM below 25%.

Consider `CC(C)c1ccccc1-c1ccc2c(c1)[C@@H](O)C[C@@]21CCN(C(=O)c2cccc(C3CC3)n2)C1` [Example 43, (6-cyclopropylpyridin-2-yl)((1S,3S)-3-hydroxy-5-(2-isopropylphenyl)-2,3-dihydrospiro[indene-1,3′-pyrrolidine]-1′-yl)ketone], for which the inhibition at 0.3 µM is below 25%. As for `CC(C)c1ccccc1-c1ccc2c(c1)[C@@H](O)C[C@]21CCN(C(=O)c2cccc(C3CC3)n2)C1` [Example 44, (6-cyclopropylpyridin-2-yl)((1R,3S)-3-hydroxy-5-(2-isopropylphenyl)-2,3-dihydrospiro[indene-1,3′-pyrrolidine]-1′-yl)ketone], the inhibition at 0.3 µM is below 25%. In the case of `O=C(c1ccc(F)cn1)N1CCC2(C[C@@H](O)c3cc(-c4ccccc4C4CC4)ccc32)C1` (stereo partly drawn) [Example 45, ((3R)-5-(2-cyclopropylphenyl)-3-hydroxy-2,3-dihydrospiro[indene-1,3′-pyrrolidine]-1′-yl)(5-fluoropyridin-2-yl) ketone], the inhibition at 0.3 µM fell in the range of 70 to 100%. Then `O=C(c1ccc(F)cn1)N1CCC2(C[C@H](O)c3cc(-c4ccccc4C4CC4)ccc32)C1` (stereo partly drawn) [Example 46, ((3S)-5-(2-cyclopropylphenyl)-3-hydroxy-2,3-dihydrospiro[indene-1,3′-pyrrolidine]-1′-yl)(5-fluoropyridin-2-yl) ketone], with below 25%.

The values are drawn from patent US20260174786A1, “A NITROGEN-CONTAINING SPIROCYCLIC COMPOUND, PHARMACEUTICAL COMPOSITION AND USE THEREOF” (Prime Gene Therapeutics Co., Ltd., priority 2022, published 2026).
